Experiments:
Anas platyrhynchos = conditions: acute; oral; unspecified; mortality
Apis mellifera = conditions: acute, mortality
Canidae = conditions: chronic; duration: 1 years; oral; Dog Other; clinical chemistry
Colinus virginianus = conditions: reproduction developmental
Daphnia magna = conditions: chronic/long-term; duration: 21 days; reproduction
Folsomia candida = conditions: chronic/long-term
Oncorhynchus mykiss = conditions: chronic/long-term; duration: 90 days; other
Oryctolagus sp. = conditions: reproduction developmental; histopathology: nonneoplastic
Zea sp. = conditions: not reported; seedling emergence
Aphidius rhopalosiphi = experiment: LR50; higher = less toxic; conditions: not reported; mortality
Typhlodromus pyri = experiment: LR50; higher = less toxic; conditions: not reported; mortality

SMILES: CC1=NNC(=O)N(/N=C/c2cccnc2)C1 [Pymetrozine]
- LD50 (Anas platyrhynchos): ≥ 2000 mg/kg-day
- LD50 (Apis mellifera; dermal): > 100 µg/piece
- LD50 (Apis mellifera; oral, unspecified): > 62.7 µg/piece
- NOAEL (Canidae): 0.57 mg/kg-day
- NOEL (Colinus virginianus): 21.8 mg/kg-day
- NOEC (Daphnia magna): 0.025 mg/L
- NOEC (Folsomia candida): 1000 mg/kg
- NOEC (Oncorhynchus mykiss): 11.7 mg/L
- NOAEL (Oryctolagus sp.): 10 mg/kg-day
- LD50 (Rattus norvegicus; acute, mortality): 3590 mg/kg-day
- NOAEL (Rattus norvegicus; reproduction developmental, reproduction): ≥ 110 mg/kg-day
- NOAEL (Rattus norvegicus; subchronic, duration: 90 days, oral, clinical chemistry): 33 mg/kg-day
- LC50 (Tagia sp.; acute, duration: 14 days, mortality): 1100 mg/kg
- NOEC (Tagia sp.; chronic/long-term, duration: 8 weeks): 0.00139 g/ha
- NOEC (Zea sp.): 150 g/ha
- LR50 (Aphidius rhopalosiphi): 75 g/ha
- LR50 (Typhlodromus pyri): > 1200 g/ha

— EPA's ToxValDB 9.5 (doi:10.2903/j.efsa.2014.3817)
